The record followed here is publication PMC6755085, “Cyclic oligoadenylate signalling mediates Mycobacterium tuberculosis CRISPR defence” (Nucleic Acids Research, 2019).

This experiment has as its target T1, TsuCsx1 (Thioalkalivibrio sulfidiphilus, UniProt B8GSI1).
T1 construct: gene Tgr7_1803; full-length; N-terminal His8 fusion (pEV5HisTEV), no tag cleavage described; synthetic gene; E. coli C43; dimer
The experiment in a line: activation of cleavage of […]-labelled RNA, denaturing PAGE. It counts as biochemical. As to conditions: synthetic cA4, 1 µM; 0.5 µM TsuCsx1 dimer; 20 mM Tris-HCl, 150 mM NaCl, 1 mM DTT, pH 7.5; 35 °C; activator.

T1 sequence (B8GSI1 entry or part of it): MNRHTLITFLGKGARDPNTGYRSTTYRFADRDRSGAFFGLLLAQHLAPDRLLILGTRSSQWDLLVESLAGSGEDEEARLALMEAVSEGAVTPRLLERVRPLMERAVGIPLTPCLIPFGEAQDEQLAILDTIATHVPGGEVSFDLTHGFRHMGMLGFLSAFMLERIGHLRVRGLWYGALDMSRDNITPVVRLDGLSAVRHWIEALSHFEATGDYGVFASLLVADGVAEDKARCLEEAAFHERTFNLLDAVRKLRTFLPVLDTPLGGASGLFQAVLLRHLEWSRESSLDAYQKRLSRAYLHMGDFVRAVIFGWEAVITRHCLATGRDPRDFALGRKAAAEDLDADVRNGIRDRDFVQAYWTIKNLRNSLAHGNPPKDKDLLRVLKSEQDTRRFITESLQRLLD

For the compound `Nc1ncnc2c1ncn2[C@@H]1O[C@@H]2COP(=O)(O)O[C@H]3[C@@H](O)[C@H](n4cnc5c(N)ncnc54)O[C@@H]3COP(=O)(O)O[C@H]3[C@@H](O)[C@H](n4cnc5c(N)ncnc54)O[C@@H]3COP(=O)(O)O[C@H]3[C@@H](O)[C@H](n4cnc5c(N)ncnc54)O[C@@H]3COP(=O)(O)O[C@H]2[C@H]1O` [cA4], the “activation of cleavage of 32P-labelled RNA, denaturing PAGE” value was “TsuCsx1 was strongly activated by synthetic cA4 but not by cA6”.
